Test results reported in ChEMBL document CHEMBL2440076, “New triarylpyrazoles as broad-spectrum anticancer agents: design, synthesis, and biological evaluation” (Eur J Med Chem, 2013).

Experiments:
[1] = system: T47D; assay: Growth inhibition of human T47D cells assessed as cell growth at 10 uM after 48 hrs by sulforhodamine B assay; format: functional; conditions: read-out: Activity
[2] = system: PC-3; assay: Growth inhibition of human PC3 cells assessed as cell growth at 10 uM after 48 hrs by sulforhodamine B assay; format: functional; conditions: PC-3, 48 h, read-out: Activity
[3] = system: CAKI-1; assay: Growth inhibition of human CAKI-1 cells assessed as cell growth at 10 uM after 48 hrs by sulforhodamine B assay; format: functional; conditions: CAKI-1, 48 h, read-out: Activity
[4] = system: HT-29; assay: Growth inhibition of human HT-29 cells after 48 hrs by sulforhodamine B assay; format: functional; conditions: HT-29, 48 h; for CC50: read-out: LC50 (the source's name)
[5] = system: KM12; assay: Growth inhibition of human KM12 cells after 48 hrs by sulforhodamine B assay; format: functional, cell-based; conditions: KM12, 48 h; for CC50: read-out: LC50 (the source's name)
[6] = system: COLO 205; assay: Growth inhibition of human COLO205 cells after 48 hrs by sulforhodamine B assay; format: functional; conditions: COLO 205, 48 h
[7] = system: NCI-H23; assay: Growth inhibition of human NCI-H23 cells after 48 hrs by sulforhodamine B assay; format: functional; conditions: NCI-H23, 48 h
[8] = system: NCI-H226; assay: Growth inhibition of human NCI-H226 cells after 48 hrs by sulforhodamine B assay; format: functional; conditions: NCI-H226, 48 h; for CC50: read-out: LC50 (the source's name)
[9] = system: CCRF-CEM; assay: Growth inhibition of human CCRF-CEM cells after 48 hrs by sulforhodamine B assay; format: functional
[10] = system: RXF 393; assay: Growth inhibition of human RXF393 cells assessed as cell growth at 10 uM after 48 hrs by sulforhodamine B assay; format: functional; conditions: RXF 393, 48 h, read-out: Activity
[11] = system: 786-0; assay: Growth inhibition of human 786-0 cells assessed as cell growth at 10 uM after 48 hrs by sulforhodamine B assay; format: functional; conditions: 786-0, 48 h, read-out: Activity
[12] = system: A498; assay: Growth inhibition of human A498 cells assessed as cell growth at 10 uM after 48 hrs by sulforhodamine B assay; format: functional; conditions: A498, 48 h, read-out: Activity
[13] = system: OVCAR-5; assay: Growth inhibition of human OVCAR5 cells assessed as cell growth at 10 uM after 48 hrs by sulforhodamine B assay; format: functional; conditions: OVCAR-5, 48 h, read-out: Activity
[14] = system: OVCAR-8; assay: Growth inhibition of human OVCAR8 cells assessed as cell growth at 10 uM after 48 hrs by sulforhodamine B assay; format: functional; conditions: OVCAR-8, 48 h, read-out: Activity
[15] = system: SK-MEL-5; assay: Growth inhibition of human SK-MEL-5 cells assessed as cell growth at 10 uM after 48 hrs by sulforhodamine B assay; format: functional; conditions: SK-MEL-5, 48 h, read-out: Activity
[16] = system: SK-MEL-2; assay: Growth inhibition of human SK-MEL-2 cells assessed as cell growth at 10 uM after 48 hrs by sulforhodamine B assay; format: functional; conditions: SK-MEL-2, 48 h, read-out: Activity
[17] = system: Malme-3M; assay: Growth inhibition of human MALME-3M cells assessed as cell growth at 10 uM after 48 hrs by sulforhodamine B assay; format: functional; conditions: read-out: Activity
[18] = system: LOX IMVI; assay: Growth inhibition of human LOXIMVI cells assessed as cell growth at 10 uM after 48 hrs by sulforhodamine B assay; format: functional; conditions: read-out: Activity
[19] = system: U-251; assay: Growth inhibition of human U251 cells assessed as cell growth at 10 uM after 48 hrs by sulforhodamine B assay; format: functional; conditions: U-251, 48 h, read-out: Activity
[20] = system: HCT-15; assay: Growth inhibition of human HCT15 cells assessed as cell growth at 10 uM after 48 hrs by sulforhodamine B assay; format: functional; conditions: HCT-15, 48 h, read-out: Activity
[21] = Growth inhibition of human HCC2998 cells assessed as cell growth at 10 uM after 48 hrs by sulforhodamine B assay; format: functional; conditions: HCC 2998, 48 h, read-out: Activity
[22] = system: NCI-H322M; assay: Growth inhibition of human NCI-H322M cells assessed as cell growth at 10 uM after 48 hrs by sulforhodamine B assay; format: functional; conditions: read-out: Activity
[23] = system: BT-549; assay: Growth inhibition of human BT549 cells after 48 hrs by sulforhodamine B assay; format: functional; conditions: BT-549, 48 h
[24] = system: MCF7; assay: Growth inhibition of human MCF7 cells after 48 hrs by sulforhodamine B assay; format: functional; conditions: MCF7, 48 h
[25] = system: DU-145; assay: Growth inhibition of human DU145 cells after 48 hrs by sulforhodamine B assay; format: functional; conditions: DU-145, 48 h
[26] = system: RXF 393; assay: Growth inhibition of human RXF393 cells after 48 hrs by sulforhodamine B assay; format: functional; conditions: RXF 393, 48 h
[27] = system: OVCAR-5; assay: Growth inhibition of human OVCAR5 cells after 48 hrs by sulforhodamine B assay; format: functional; conditions: OVCAR-5, 48 h
[28] = system: SK-MEL-5; assay: Growth inhibition of human SK-MEL-5 cells after 48 hrs by sulforhodamine B assay; format: functional; conditions: SK-MEL-5, 48 h
[29] = system: UACC-257; assay: Growth inhibition of human UACC257 cells after 48 hrs by sulforhodamine B assay; format: functional; conditions: UACC-257, 48 h; for CC50: read-out: LC50 (the source's name)
[30] = system: MDA-MB-435; assay: Growth inhibition of human MDA-MB-435 cells after 48 hrs by sulforhodamine B assay; format: functional, cell-based; conditions: MDA-MB-435, 48 h; for CC50: read-out: LC50 (the source's name)
[31] = system: SF-539; assay: Growth inhibition of human SF539 cells after 48 hrs by sulforhodamine B assay; format: functional; conditions: SF-539, 48 h
[32] = system: HOP-62; assay: Growth inhibition of human HOP62 cells assessed as cell growth at 10 uM after 48 hrs by sulforhodamine B assay; format: functional; conditions: HOP-62, 48 h, read-out: Activity
[33] = system: A549; assay: Growth inhibition of human A549/ATCC cells assessed as cell growth at 10 uM after 48 hrs by sulforhodamine B assay; format: functional; conditions: A549, 48 h, read-out: Activity
[34] = system: RPMI-8226; assay: Growth inhibition of human RPMI8226 cells assessed as cell growth at 10 uM after 48 hrs by sulforhodamine B assay; format: functional; conditions: RPMI-8226, 48 h, read-out: Activity
[35] = system: CCRF-CEM; assay: Growth inhibition of human CCRF-CEM cells assessed as cell growth at 10 uM after 48 hrs by sulforhodamine B assay; format: functional; conditions: read-out: Activity

`COc1cc(-c2nn(-c3cccc(NC(=O)c4ccc(N5CCOCC5)c(C(F)(F)F)c4)c3)cc2-c2ccncc2)ccc1Cl` showed a growth at 10 µM [1] of 27.5%, a growth at 10 µM [2] of 8.17% and a growth at 10 µM [3] of 39.9%. The GI50 [4] was 0.38 µM, the TGI [4] was 1.52 µM and the CC50 [4] was greater than 100 µM. It also gave a GI50 [5] of 0.248 µM, an IC50 [5] of 0.25 µM and a TGI [5] of 6.6 µM. The CC50 [5] was greater than 100 µM, the GI50 [6] was 0.342 µM and the LC50 (concentration killing 50% of cells) [6] was 4.15 µM. For the same compound, the TGI [6] was 1.15 µM, the GI50 [7] was 0.87 µM and the LC50 [7] was greater than 100 µM. For the same compound, the TGI [7] was 20.7 µM, the GI50 [8] was 0.427 µM and the TGI [8] was greater than 100 µM. The CC50 [8] was greater than 100 µM, the GI50 [9] was 0.236 µM and the LC50 [9] was greater than 100 µM. For the same compound, the TGI [9] was greater than 100 µM, the growth at 10 µM [10] was -45.2% and the growth at 10 µM [11] was -3.26%. The growth at 10 µM [12] was -29.7%, the growth at 10 µM [13] was 34.7% and the growth at 10 µM [14] was 5.23%. The growth at 10 µM [15] was 3.41%, the growth at 10 µM [16] was -8.84% and the growth at 10 µM [17] was 36.2%. It also gave a growth at 10 µM [18] of 13.7%, a growth at 10 µM [19] of 2.49% and a growth at 10 µM [20] of 16.7%. The growth at 10 µM [21] was 8.82%, the growth at 10 µM [22] was 54.2% and the GI50 [23] was 1.41 µM. For the same compound, the LC50 (50% lethal concentration) [23] was greater than 100 µM, the TGI [23] was greater than 100 µM and the GI50 [24] was 0.285 µM. The LC50 [24] was greater than 100 µM, the TGI [24] was greater than 1 µM and the GI50 [25] was 0.388 µM. For the same compound, the LC50 [25] was greater than 100 µM, the TGI [25] was greater than 100 µM and the GI50 [26] was 0.199 µM. The LC50 (concentration killing 50% of cells) [26] was greater than 100 µM, the TGI [26] was 0.674 µM and the GI50 [27] was 1.45 µM. The LC50 (concentration killing 50% of cells) [27] was greater than 100 µM, the TGI [27] was greater than 100 µM and the GI50 [28] was 0.112 µM. For the same compound, the LC50 (concentration killing 50% of cells) [28] was 7.64 µM, the TGI [28] was 0.675 µM and the GI50 [29] was 0.935 µM. For the same compound, the TGI [29] was 8.14 µM, the CC50 [29] was greater than 100 µM and the GI50 [30] was 0.0266 µM. It also gave an IC50 [30] of 0.027 µM, a TGI [30] of 0.0914 µM and a CC50 [30] greater than 100 µM. For the same compound, the GI50 [31] was 0.153 µM, the TGI [31] was 0.497 µM and the growth at 10 µM [32] was 29.4%. For the same compound, the growth at 10 µM [33] was 3.58%, the growth at 10 µM [34] was 8.3% and the growth at 10 µM [35] was 0.91%.

`O=C(Nc1cccc(-n2cc(-c3ccncc3)c(-c3ccc(Cl)c(O)c3)n2)c1)c1ccc(N2CCOCC2)c(C(F)(F)F)c1` gave a growth at 10 µM [1] of 69.4%, a growth at 10 µM [2] of 27.2% and a growth at 10 µM [3] of 81.2%. It also gave a GI50 [4] of 14.4 µM, a TGI [4] greater than 50 µM and a CC50 [4] greater than 50 µM. For the same compound, the GI50 [5] was 1.94 µM, the TGI [5] was greater than 50 µM and the CC50 [5] was greater than 50 µM. It also gave a GI50 [6] greater than 50 µM, an LC50 (concentration killing 50% of cells) [6] greater than 50 µM and a TGI [6] greater than 50 µM. It also gave a GI50 [7] of 4.2 µM, an LC50 [7] greater than 50 µM and a TGI [7] of 30.1 µM. It also gave a GI50 [8] greater than 50 µM, a TGI [8] greater than 50 µM and a CC50 [8] greater than 50 µM. It also gave a GI50 [9] of 1.82 µM, an LC50 [9] greater than 50 µM and a TGI [9] greater than 50 µM. It also gave a growth at 10 µM [10] of -26%, a growth at 10 µM [11] of 59.6% and a growth at 10 µM [12] of 101%. The growth at 10 µM [13] was 116%, the growth at 10 µM [14] was 37% and the growth at 10 µM [15] was 50.8%. It also gave a growth at 10 µM [16] of 17.6%, a growth at 10 µM [17] of 10.7% and a growth at 10 µM [18] of 9.98%. The growth at 10 µM [19] was 11.8%, the growth at 10 µM [20] was 26.2% and the growth at 10 µM [21] was 56.4%. For the same compound, the growth at 10 µM [22] was 82.1%, the GI50 [23] was 19.4 µM and the LC50 (50% lethal concentration) [23] was greater than 50 µM. The TGI [23] was greater than 50 µM, the GI50 [24] was 2.81 µM and the LC50 [24] was greater than 50 µM. For the same compound, the TGI [24] was greater than 50 µM, the GI50 [25] was 4.2 µM and the LC50 [25] was greater than 50 µM. It also gave a TGI [25] greater than 50 µM, a GI50 [26] of 0.626 µM and an LC50 (concentration killing 50% of cells) [26] greater than 50 µM. The TGI [26] was 2.9 µM, the GI50 [27] was greater than 50 µM and the LC50 (concentration killing 50% of cells) [27] was greater than 50 µM. For the same compound, the TGI [27] was greater than 50 µM, the GI50 [28] was 2.47 µM and the LC50 (concentration killing 50% of cells) [28] was 31.8 µM. For the same compound, the TGI [28] was 10.2 µM, the GI50 [29] was 6.3 µM and the TGI [29] was 36.8 µM. The CC50 [29] was greater than 50 µM, the GI50 [30] was 2.04 µM and the IC50 [30] was 2.04 µM. For the same compound, the TGI [30] was greater than 50 µM, the CC50 [30] was greater than 50 µM and the GI50 [31] was 1.37 µM. The LC50 (concentration killing 50% of cells) [31] was greater than 50 µM, the TGI [31] was 17.3 µM and the growth at 10 µM [32] was 40.4%. It also gave a growth at 10 µM [33] of 31.4%, a growth at 10 µM [34] of 5.19% and a growth at 10 µM [35] of 27.9%.
